Measurements reported in ChEMBL document CHEMBL1255477, “In vitro properties of BAL30072, a novel siderophore sulfactam with activity against multiresistant gram-negative bacilli” (Antimicrob Agents Chemother, 2010).
Values joined by “and” are separate entries in the source; they are usually repeats but may differ in a detail not shown here. Identical values can stand only once. Active and inactive are the calls of the source.

Tests used:
Pseudomonas aeruginosa [1] = assay: Antimicrobial activity against mexAB-oprM protein and mexCD-oprJ deficient Pseudomonas aeruginosa PAO238 by broth dilution method; assay type: functional
Enterobacter cloacae [2] = assay: Antimicrobial activity against Enterobacter cloacae S9369 assessed as appearance of colony at 4 times MIC concentration; assay type: functional, organism-based
Escherichia coli [3] = assay: Antimicrobial activity against Escherichia coli nmcA harboring beta-lactamase NMCA by broth dilution method; assay type: functional
Pseudomonas aeruginosa [4] = assay: microbe, parasite or virus in culture; settings: 18S/H
Description: Antimicrobial activity against Pseudomonas aeruginosa 18S/H harboring beta-lactamase Class C by broth dilution method

Pseudomonas aeruginosa [5] = assay: Antimicrobial activity against Pseudomonas aeruginosa 621 assessed as appearance of colony at 4 times MIC concentration; assay type: functional
Acinetobacter sp. = assay: Antimicrobial activity against Acinetobacter sp. by broth dilution method; assay type: functional
Enterobacter cloacae [6] = assay: Antimicrobial activity against Enterobacter cloacae by broth dilution method; assay type: functional
Klebsiella pneumoniae [7] = assay: Antimicrobial activity against Klebsiella pneumoniae 1338665 assessed as number of passages required for MIC to rise above 4 times original MIC; assay type: functional
Acinetobacter baumannii [8] = assay: Antimicrobial activity against Acinetobacter baumannii HPA74510 harboring beta-lactamase IMP-4 by broth dilution method; assay type: functional
Burkholderia sp. = assay: Antimicrobial activity against Burkholderia sp. by broth dilution method; assay type: functional
Pseudomonas aeruginosa [9] = assay: Antimicrobial activity against mexAB-oprM, mexCD-oprJ, mexEF-oprN, mexJK, mexXY, opmH and pscC gene deficient Pseudomonas aeruginosa PAO750 by broth dilution method; assay type: functional
[10] = system: Stenotrophomonas maltophilia; assay: Antimicrobial activity against Stenotrophomonas maltophilia 1AC736 assessed as number of passages required for MIC to rise above 4 times original MIC; assay type: functional
Proteus mirabilis = assay: Antimicrobial activity against Proteus mirabilis by broth dilution method; assay type: functional
Acinetobacter baumannii [11] = assay: Antimicrobial activity against Acinetobacter baumannii HPA74510 assessed as number of passages required for MIC to rise above 4 times original MIC; assay type: functional
Escherichia coli [12] = assay: Antimicrobial activity against Escherichia coli by broth dilution method; assay type: functional
Citrobacter freundii = assay: Antimicrobial activity against Citrobacter freundii by broth dilution method; assay type: functional
Pseudomonas aeruginosa [13] = assay: Antimicrobial activity against Pseudomonas aeruginosa 860 assessed as appearance of colony at 4 times MIC concentration; assay type: functional
Escherichia coli [14] = assay: Antimicrobial activity against Escherichia coli K802N harboring beta-lactamase TEM-3 by broth dilution method; assay type: functional
Klebsiella pneumoniae [15] = assay: Antimicrobial activity against Klebsiella pneumoniae 1338665 assessed as appearance of colony at 4 times MIC concentration; assay type: functional, organism-based
Pseudomonas aeruginosa [16] = assay: Antimicrobial activity against Pseudomonas aeruginosa by broth dilution method; assay type: functional
Klebsiella pneumoniae [17] = assay: Antimicrobial activity against Klebsiella pneumoniae CRE harboring beta-lactamase KPC-2 by broth dilution method; assay type: functional
Escherichia coli [18] = assay: Antimicrobial activity against Escherichia coli HB101 harboring beta-lactamase TEM-5 by broth dilution method; assay type: functional
Pseudomonas aeruginosa [19] = assay: Antimicrobial activity against Pseudomonas aeruginosa BA assessed as appearance of colony at 4 times MIC concentration; assay type: functional
Acinetobacter baumannii [20] = assay: Antimicrobial activity against Acinetobacter baumannii HPA I-16 harboring beta-lactamase OXA-27 by broth dilution method; assay type: functional
Acinetobacter baumannii [21] = assay: Antimicrobial activity against Acinetobacter baumannii HPA 327009 harboring beta-lactamase OXA-25 by broth dilution method; assay type: functional
Escherichia coli [22] = assay: Antimicrobial activity against Escherichia coli A harboring beta-lactamase CTX-M 15 by broth dilution method; assay type: functional
Klebsiella pneumoniae [23] = assay: Antimicrobial activity against Klebsiella pneumoniae by broth dilution method; assay type: functional
Enterobacter cloacae [24] = assay: Antimicrobial activity against Enterobacter cloacae S4741B assessed as number of passages required for MIC to rise above 4 times original MIC; assay type: functional
Pseudomonas aeruginosa [25] = assay: Antimicrobial activity against Pseudomonas aeruginosa BA(C2-107) selected after 25 ug/ml of compound exposure by broth dilution method; assay type: functional
[26] = system: Stenotrophomonas maltophilia; assay: Antimicrobial activity against Stenotrophomonas maltophilia B715 harboring beta-lactamase L1and L2 by broth dilution method; assay type: functional
Pseudomonas aeruginosa [27] = assay: Antimicrobial activity against Pseudomonas aeruginosa BA by broth dilution method; assay type: functional; settings: Pseudomonas aeruginosa, BA; read-out: MIC
Enterobacter cloacae [28] = assay: Microbicidal activity against Enterobacter cloacae S4741B selected after 4 times MIC compound exposure; assay type: functional
Acinetobacter junii = assay: Antimicrobial activity against Acinetobacter junii 15218 assessed as number of passages required for MIC to rise above 4 times original MIC; assay type: functional
Pseudomonas aeruginosa [29] = assay: Antimicrobial activity against fpvA, fpvB, fptA and pirA gene deficient Pseudomonas aeruginosa 860 by broth dilution method; assay type: functional
Acinetobacter baumannii [30] = assay: Antimicrobial activity against Acinetobacter baumannii HPA74510 assessed as appearance of colony at 4 times MIC concentration; assay type: functional, organism-based
Klebsiella pneumoniae [31] = assay: Antimicrobial activity against Klebsiella pneumoniae 1357E harboring beta-lactamase TEM-10 by broth dilution method; assay type: functional
Serratia marcescens [32] = assay: Antimicrobial activity against Serratia marcescens S6 harboring beta-lactamase SME-1.AmpC by broth dilution method; assay type: functional
Klebsiella pneumoniae [33] = assay: Antimicrobial activity against Klebsiella pneumoniae YC harboring beta-lactamase KPC-2,TEM-1and SHV-2 by broth dilution method; assay type: functional
Klebsiella aerogenes = assay: Antimicrobial activity against Enterobacter aerogenes by broth dilution method; assay type: functional
Pseudomonas aeruginosa [34] = assay: Antimicrobial activity against oprD protein deficient Pseudomonas aeruginosa C2 by broth dilution method; assay type: functional
Pseudomonas aeruginosa [35] = assay: Antimicrobial activity against Pseudomonas aeruginosa B4 by broth dilution method; assay type: functional
Enterobacter cloacae [36] = assay: Antimicrobial activity against Enterobacter cloacae S9369 assessed as number of passages required for MIC to rise above 4 times original MIC; assay type: functional
Pseudomonas aeruginosa [37] = assay: microbe, parasite or virus in culture; settings: PAO1
Description: Antimicrobial activity against Pseudomonas aeruginosa PAO1 by broth dilution method

Providencia stuartii = assay: Antimicrobial activity against Providencia stuartii by broth dilution method; assay type: functional
Pseudomonas aeruginosa [38] = assay: Antimicrobial activity against Pseudomonas aeruginosa BA(C1-106) selected after 25 ug/ml of compound exposure by broth dilution method; assay type: functional
Pseudomonas aeruginosa [39] = assay: microbe, parasite or virus in culture; settings: BA
Description: Antimicrobial activity against Pseudomonas aeruginosa BA harboring beta-lactamase Class C by broth dilution method

Pseudomonas aeruginosa [40] = assay: Antimicrobial activity against Pseudomonas aeruginosa 527 assessed as number of passages required for MIC to rise above 4 times original MIC; assay type: functional
Proteus vulgaris = assay: Antimicrobial activity against Proteus vulgaris by broth dilution method; assay type: functional
Providencia rettgeri = assay: Antimicrobial activity against Providencia rettgeri by broth dilution method; assay type: functional
Enterobacter cloacae [41] = assay: Antimicrobial activity against Enterobacter cloacae 908R harboring beta-lactamase AmpC by broth dilution method; assay type: functional
Klebsiella pneumoniae [42] = assay: Antimicrobial activity against Klebsiella pneumoniae 26768WU harboring beta-lactamase SHV-5 by broth dilution method; assay type: functional
Serratia marcescens [43] = assay: Antimicrobial activity against Serratia marcescens 1T9 harboring beta-lactamase Class C by broth dilution method; assay type: functional

CC1(C)[C@H](NC(=O)/C(=N\OCc2cc(=O)c(O)cn2O)c2csc(N)n2)C(=O)N1OS(=O)(=O)O (stereo in doubt)
0.25 µg/mL: MIC (Acinetobacter baumannii [8]) | MIC90 (Proteus mirabilis) | MIC [26] | MIC (Pseudomonas aeruginosa [34]) | MIC90 (Proteus vulgaris)
4 passages: Activity [10]
9 passages: Activity (Klebsiella pneumoniae [7]) | Activity (Enterobacter cloacae [24]) | Activity (Pseudomonas aeruginosa [40])
active: Activity (Enterobacter cloacae [2]) | Activity (Klebsiella pneumoniae [15]) | Activity (Pseudomonas aeruginosa [19]) | Activity (Acinetobacter baumannii [30])
2.1 frequency: Activity (Pseudomonas aeruginosa [19]; record 2)
2.8 frequency and 2.5 frequency: Activity (Pseudomonas aeruginosa [5])
0.125 µg/mL: MIC (Pseudomonas aeruginosa [1]) | MIC90 (Burkholderia sp.) | MIC (Escherichia coli [22])
0.5 µg/mL: MIC50 (Acinetobacter sp.) | MIC (Acinetobacter baumannii [20]) | MIC50 (Klebsiella aerogenes) | MIC (Pseudomonas aeruginosa [35]) | MIC (Pseudomonas aeruginosa [39])
20 passages: Activity (Acinetobacter junii)
7 frequency: Activity (Pseudomonas aeruginosa [13])
16 µg/mL: MIC90 (Citrobacter freundii) | MIC50 (Klebsiella pneumoniae [23]) | MIC90 (Klebsiella aerogenes) | MIC (Pseudomonas aeruginosa [38])
6 passages: Activity (Acinetobacter baumannii [11])
8 passages: Activity (Enterobacter cloacae [36])
2 µg/mL: MIC (Pseudomonas aeruginosa [4]) | MIC50 (Pseudomonas aeruginosa [16]) | MIC (Pseudomonas aeruginosa [37])
≤ 0.06 µg/mL: MIC (Burkholderia sp.) | MIC50 (Burkholderia sp.) | MIC (Pseudomonas aeruginosa [9]) | MIC (Proteus mirabilis) | MIC50 (Proteus mirabilis) | MIC (Klebsiella pneumoniae [17]) | MIC (Serratia marcescens [32]) | MIC (Providencia stuartii) | MIC50 (Providencia stuartii) | MIC90 (Providencia stuartii) | MIC (Proteus vulgaris) | MIC50 (Proteus vulgaris) | MIC (Providencia rettgeri) | MIC50 (Providencia rettgeri) | MIC90 (Providencia rettgeri)
1 µg/mL: MIC (Escherichia coli [3]) | MIC50 (Escherichia coli [12]) | MIC (Pseudomonas aeruginosa [27]) | MIC (Pseudomonas aeruginosa [29]) | MIC (Serratia marcescens [43])
> 32 µg/mL: MIC90 (Enterobacter cloacae [6]) | MIC90 (Escherichia coli [12]) | MIC (Escherichia coli [14]) | MIC90 (Klebsiella pneumoniae [23]) | MIC (Klebsiella pneumoniae [33]) | MIC (Klebsiella pneumoniae [42])
4 µg/mL: MIC90 (Acinetobacter sp.) | MIC50 (Enterobacter cloacae [6]) | MIC50 (Citrobacter freundii) | MIC (Acinetobacter baumannii [21]) | MBC (Enterobacter cloacae [28]) | MIC (Klebsiella pneumoniae [31]) | MIC (Enterobacter cloacae [41])
32 µg/mL: MIC (Escherichia coli [18])
8 µg/mL: MIC90 (Pseudomonas aeruginosa [16]) | MIC (Pseudomonas aeruginosa [25])
